Measurements from US12264146B2, “Rho kinase inhibitor, method for preparing same and uses thereof” (BEIJING INCREASE INNOVATIVE DRUG CO., LTD., priority 2018, dated 2025).

How the values were obtained:
[1] = system: subarachnoid hemorrhage in rats; assay: Rat subarachnoid hemorrhage (SAH) model by intravascular puncture, Sugawara bleeding score; type: in vivo; parameters: dose or concentration left out as unconfirmed; details: tail vein injection, 2 administrations 4 h apart, scored 24 h after first administration (Sugawara)
Description: Rat subarachnoid hemorrhage (SAH) model was built by intravascular puncture. After being weighed, the rats were anesthetized with sodium pentobarbital (50 mg/kg) or chloral hydrate (300 mg/kg) by intraperitoneal injection, then fixed on their back and maintained the animal's body temperature at about 37° C. The rats' neck skin was shaved for surgery, a median incision was made on the neck, and muscle and fascia were separated along the inner edge of stemocleidomastoid muscle to expose the main and bifurcation of right common carotid artery, and expose the external and internal carotid arteries.
The bifurcation of internal carotid artery was gently clamped with ophthalmic forceps, the bifurcation of the internal carotid artery and the external carotid artery was pierced with a 6-gauge syringe needle, the ophthalmic forceps holding the bifurcation of internal carotid artery was slightly loosen, and No. 3 fishing thread was used to perform a puncture at the bleeding point, the ophthalmic forceps on the internal carotid artery was loosen, and the fishing thread was inserted into skull. […] After staying for 15 seconds, the thread for puncture was completely removed, and the skin was sutured after compression to stop the bleeding. 1.6 million units of penicillin potassium (400,000 units/ml, 0.2 ml/rat) was intramuscularly injected to avoid wound infection. For the sham operation group, the thread for puncture was removed when resistance was felt without piercing the bifurcation of the anterior cerebral artery and the middle cerebral artery, while the remaining operation steps were the same as the model group. After the operation, the rats were transferred to a thermal insulation blanket, then transferred to a squirrel cage when they were basically awake, and kept normally.
In this test experimental, 32 groups were set, i.e., Groups 1 to 32, in which Group 1 was a normal control group (healthy rats), Group 2 was a sham operation control group (not modeling by puncture), Group 3 was a model control group (modeling by puncture, administrated with normal saline), Group 4 was a positive control group (modeling by puncture, administrated with fasudil hydrochloride injection), and Groups 5 to 32 were test groups of the compounds of the present application (modeling by puncture, respectively administrated with the compounds of the present application); and there were 8 animals (purchased from SPF (Beijing) Biotechnology Co., Ltd., the certificate number was SYXK (Beijing) 2016-0002) in each group, half of them were female and half of them were male. The animals were subjected to fasting for 12 to 18 hours without prohibition of drinking water before modeling. […] The rats were euthanized 24 h after the first administration, and the brains were taken. According to Sugawara's method (Reference: Sugawara T, Ayer R, Jadhav V, et al. A new grading system evaluating bleeding scale in filament perforation subarachnoid hemorrhage rat model. J Neurosci Methods. 2008, 167(2):327-34), the subarachnoid hemorrhage amounts were scored, and the scoring results were as follows: […]

endothelin (ET-1) = assay: Expression of endothelin (ET-1) in EA.Hy926 endothelial cells, detection kit; type: cell-based, human; details: EA.Hy926 cell supernatant, 48 h
Description: (§1) Commercially available cytokine kits were used to detect the effects of the compounds of the present application on vascular endothelium-derived contracting factor endothelin, vascular endothelium-derived relaxing factor endothelial nitric oxide synthase, nitric oxide, and prostacyclin factor. The detection was performed according to the kit instructions. When testing the effect of the compound of the present application on cytokines, a normal control group, a fasudil hydrochloride group, and high-, medium- and low-dose groups of the compounds of the present application were set up for testing. The fasudil hydrochloride used in this test example was purchased from Beijing Sihuan Pharmaceutical Co., Ltd., with the SFDA approval number of H20173349. The EA.Hy926 cells used in this test example were purchased from Suzhou Beina Chuanglian Biotechnology Co., Ltd.
EA.Hy926 cells were taken and inoculated in a 96-well plate at 5×10^4 cells/mL, 100 μL per well, and cultured adherently for 24 hours, then the test compound prepared in DMEM medium was added, and an equal volume of DMEM medium was added in the normal control group, then the cells were cultured at 37° C. for 48 hours, and then the cell supernatant was taken and placed in an EP tube, and centrifuged at 3000 r/min, 4° C. for 15 min. The resulting cell supernatant was transferred to a new EP tube, diluted twice with culture medium, and detected according to the instruction of the human endothelin detection kit (purchased from Wuhan Boster Biological Engineering Co., Ltd., batch number 59113731009), and the detection results were shown in Table 2.

nitric oxide (NO) = assay: Synthesis and secretion of nitric oxide (NO) in EA.Hy926 endothelial cells, NO detection kit; type: cell-based; details: EA.Hy926 cell supernatant, 24 h
Description: as §1
EA.Hy926 cells were inoculated in a 24-well plate at 5×10^5 cells/mL, 400 μL per well, and cultured adherently for 18 hours, then the supernatant was discarded, the test compound prepared in DMEM medium was added, and an equal volume of DMEM medium was added in the normal control group, then the cells was cultured for 24 h in incubator, and then the cell supernatant was collected and detected according to the instructions of NO detection kit (purchased from Beyotime Institute of Biotechnology, Cat. No. 062617171017), and the detection results were shown in Table 5.

Row | SMILES | Cerebral hemorrhage volume score (x ± s) [1] | expression of endothelin in endothelial cells: Detection result of test compound at low dose (0.4 μM) (endothelin (ET-1)) [pg/mL] | expression of endothelin in endothelial cells: Detection result of test compound at medium dose (2 μM) (endothelin (ET-1)) [pg/mL] | expression of endothelin in endothelial cells: Detection result of test compound at high dose (10 μM) (endothelin (ET-1)) [pg/mL] | nitric oxide secretion in endothelial cells: Detection result of test compound at low dose (0.4 μM) (nitric oxide (NO)) [μm] | nitric oxide secretion in endothelial cells: Detection result of test compound at medium dose (2 μM) (nitric oxide (NO)) [μm] | nitric oxide secretion in endothelial cells: Detection result of test compound at high dose (10 μM) (nitric oxide (NO)) [μm]
1 | COc1ncc(C2CC2)c2c(S(=O)(=O)N3CCCNC[C@H]3C)cccc12 [Compound R-YK1600-2, (R)-4-cyclopropyl-1-methoxy-5-((2-methyl-1,4-diazacycloheptan-1-yl)sulfonyl)isoquinoline] | 13.59 ± 2.67 | 223.55 ± 0.12 | 225.98 ± 11.41 | 229.23 ± 0.75 | 0.982 ± 0.096 | 1.037 ± 0.062 | 1.139 ± 0.263
2 | CC(C)[C@@H]1CNCCCN1S(=O)(=O)c1cccc2c(O)nccc12 [Compound R-YK1609, (R)-5-((2-isopropyl-1,4-diazacycloheptan-1-yl)sulfonyl)isoquinolin-1-ol] | 12.27 ± 2.02 | 222.75 ± 52.53 | 232.72 ± 22.83 | 242.03 ± 1.24 | 0.978 ± 0.028 | 1.014 ± 0.051 | 1.115 ± 0.006
3 | CCCC[C@@H]1CNCCCN1S(=O)(=O)c1cccc2c(O)nccc12 [Compound R-YK1611, (R)-5-((2-butyl-1,4-diazacycloheptan-1-yl)sulfonyl)isoquinolin-1-ol] | 12.41 ± 2.03 | 238.20 ± 2.28 | 249.34 ± 7.96 | 235.68 ± 3.34 | 1.095 ± 0.095 | 1.109 ± 0.087 | 1.125 ± 0.016
4 | C[C@@H]1CNCCCN1S(=O)(=O)c1cccc2c(O)ncc(Cl)c12 [Compound R-YK1606, (R)-4-chloro-5-((2-methyl-1,4-diazacycloheptan-1-yl)sulfonyl)isoquinolin-1-ol] | 12.69 ± 2.01 | 231.75 ± 32.51 | 242.62 ± 19.81 | 231.03 ± 1.24 | 1.131 ± 0.019 | 1.009 ± 0.102 | 1.158 ± 0.223
5 | CCc1cnc(O)c2cccc(S(=O)(=O)N3CCCNC[C@H]3C)c12 [Compound R-YK1607, (R)-4-ethyl-5-((2-methyl-1,4-diazacycloheptan-1-yl)sulfonyl)isoquinolin-1-ol] | 12.12 ± 2.06 | 248.20 ± 2.28 | 259.34 ± 7.96 | 237.68 ± 3.34 | 0.898 ± 0.006 | 0.924 ± 0.032 | 1.010 ± 0.006
6 | C[C@@H]1CNCCCN1S(=O)(=O)c1cccc2cnccc12 [Compound R-YK1603, (R)-5-((2-methyl-1,4-diazacycloheptan-1-yl)sulfonyl)isoquinoline] | 12.06 ± 1.98 | 242.75 ± 52.53 | 252.72 ± 22.83 | 242.03 ± 1.24 | 1.207 ± 0.000 | 0.743 ± 0.070 | 0.910 ± 0.025
